Measured values taken from US20260306491A1, “EGFR INHIBITOR FOR TREATING CANCERS COMPRISING ATYPICAL EGFR MUTATIONS” (ORIC Pharmaceuticals, Inc., priority 2023, published 2026).
“And” between values parts separate entries of the source, which are not always exact repeats. Equal entries are not always repeated.

Key:
Type in all cases: in vivo, human
[1] = test system: EGFR exon 20 mutated NSCLC with active CNS metastases; assay: Clinical evaluation in one subject (Example 11); conditions: hemifumarate, 75 mg QD
Procedure: A subject having EGFR exon 20 mutated non-small cell lung cancer was enrolled in a clinical study relating to Compound I. The cancer in the subject had been previously treated with chemotherapy (pemetrexed/cisplatin) and amivantamab. The subject presented with four active CNS non-target lesions that were previously untreated, and for which the subject had not undergone prior surgery or radiation treatment. The subject was enrolled in a dosing cohort that received 75 mg QD of Compound I in the form of a hemifumarate salt.

[2] = test system: EGFR exon 20 insertion mutated NSCLC; assay: Clinical study: duration of treatment and antitumor response, EGFR exon 20 insertion mutated NSCLC (Example 10); conditions: oral hemifumarate, one value per subject
Procedure: (§1) A clinical study was conducted using Compound I in human subjects having non-small cell lung cancer (NSCLC) comprising EGFR exon 20 insertion mutations, HER2 exon 20 insertion mutations, or HER2 amplification or overexpression. A total of 50 human subjects having non-small cell lung cancer comprising one or more EGFR exon 20 insertion mutations, HER2 exon 20 insertion mutations, or HER2 amplification or overexpression were enrolled in the study as of Jul. 31, 2023 with data collected as of Sep. 26, 2023. The subjects were enrolled into one of ten dosing cohorts that were each orally administered Compound I in the form of a hemifumarate salt as shown in Table 13 (QD=once per day; BID=twice per day).
Duration of treatment and antitumor responses achieved in evaluable subjects with EGFR exon 20 insertion mutated NSCLC (dose level greater than or equal to 45 mg TDD and at least one post-baseline tumor assessment) who were administered Compound I in the form of a hemifumarate salt are set forth in Tables 19 and 20, respectively.

[3] = Clinical study in NSCLC subjects: treatment-related adverse events (Example 10); conditions: oral hemifumarate
Procedure: as §1
The TRAEs that occurred in equal to or greater than 10% of subjects in the study are set forth in Tables 15 to 18 (TDD=total daily dose; n=number; N/A=not applicable; the term rash includes the following terms: acne, dermatitis, dermatitis acneiform, eczema, hand dermatitis, and rash).

## C=CC(=O)Nc1cc(Nc2cc(N3OCC[C@@H]3c3cc(F)cc(F)c3)ncn2)c(OC)cc1N1CCC(N2CCN(C3CC3)CC2)CC1 [Compound I, N-[2-[4-(4-cyclopropyl-1-piperazinyl)-1-piperidinyl]-5-[[6-[(3R)-3-(3,5-difluorophenyl)-2-isoxazolidinyl]-4-pyrimidinyl]amino]-4-methoxyphenyl]-2-propenamide]
[1]; after cycle 1 (28 days)
  Reduction of all target and non-target lesions: 60%
[1]; after cycle 1, confirmed after cycle 2
  Reduction of all 4 CNS lesions: 100%
[1]; continuing
  Duration of dosing at data cutoff: on dosing cycle 9
[1]; data cutoff Sep. 26, 2023
  EGFR-related adverse events: Grade 2 mucositis and Grade 2 paronychia
[1]; end of cycle 2
  Reduction of all target and non-target lesions: 100%
[1]; end of cycle 2, confirmed
  Tumor response: complete response
[2]; dosing cohort 30 BID
  Duration of treatment: ongoing
[2]; dosing cohort 45 QD
  Duration of treatment: 84 days and ongoing and 134 days and 28 days
[2]; dosing cohort 60 QD
  Duration of treatment: 33 days and ongoing and 20 days
[2]; dosing cohort 75 QD
  Duration of treatment: 90 days and 109 days and 20 days and ongoing
[2]; dosing cohort 90 QD
  Duration of treatment: 28 days and 52 days
[3]
  Dose reductions and discontinuations: infrequent dose reductions and discontinuations
[3]; 45 mg-60 mg TDD (n = 23)
  Decreased appetite, Grade 1: (22) %
  Decreased appetite, Grade 1, number of subjects: 5 n
  Decreased appetite, Grade 2: (4) %
  Decreased appetite, Grade 2, number of subjects: 1 n
  Diarrhea, Grade 1: (30) %
  Diarrhea, Grade 1, number of subjects: 7 n
  Diarrhea, Grade 2: (9) %
  Diarrhea, Grade 2, number of subjects: 2 n
  Diarrhea, Grade 3: 9%
  Diarrhea, Grade 3, number of subjects: 2 n
  Dose discontinuations: 4%
  Dose discontinuations, number: 1 n
  Dose reductions: 13%
  Dose reductions, number: 3 n
  Nausea, Grade 1: (9) %
  Nausea, Grade 1, number of subjects: 2 n
  Nausea, Grade 2: (9) %
  Nausea, Grade 2, number of subjects: 2 n
  Paronychia, Grade 1: (17) %
  Paronychia, Grade 1, number of subjects: 4 n
  Paronychia, Grade 2: (17) %
  Paronychia, Grade 2, number of subjects: 4 n
  Pruritis, Grade 1: (17) %
  Pruritis, Grade 1, number of subjects: 4 n
  Pruritis, Grade 2: (9) %
  Pruritis, Grade 2, number of subjects: 2 n
  Pruritis, Grade 3: 4%
  Pruritis, Grade 3, number of subjects: 1 n
  Rash, Grade 1: (26) %
  Rash, Grade 1, number of subjects: 6 n
  Rash, Grade 2: (26) %
  Rash, Grade 2, number of subjects: 6 n
  Stomatitis, Grade 1: (9) %
  Stomatitis, Grade 1, number of subjects: 2 n
  Stomatitis, Grade 2: (9) %
  Stomatitis, Grade 2, number of subjects: 2 n
  Stomatitis, Grade 3: 4%
  Stomatitis, Grade 3, number of subjects: 1 n
  Vomiting, Grade 1: (9) %
  Vomiting, Grade 1, number of subjects: 2 n
[3]; <45 mg TDD (n = 18)
  Decreased appetite, Grade 2: (6) %
  Decreased appetite, Grade 2, number of subjects: 1 n
  Diarrhea, Grade 1: (11) %
  Diarrhea, Grade 1, number of subjects: 2 n
  Diarrhea, Grade 2: (11) %
  Diarrhea, Grade 2, number of subjects: 2 n
  Dose discontinuations: 9%
  Dose discontinuations, number: 1 n
  Dose reductions: 18%
  Dose reductions, number: 2 n
  Nausea, Grade 1: (6) %
  Nausea, Grade 1, number of subjects: 1 n
  Paronychia, Grade 1: (6) %
  Paronychia, Grade 1, number of subjects: 1 n
  Paronychia, Grade 2: (11) %
  Paronychia, Grade 2, number of subjects: 2 n
  Pruritis, Grade 1: (11) %
  Pruritis, Grade 1, number of subjects: 2 n
  Rash, Grade 1: (33) %
  Rash, Grade 1, number of subjects: 6 n
  Rash, Grade 2: (22) %
  Rash, Grade 2, number of subjects: 4 n
  Stomatitis, Grade 1: (22) %
  Stomatitis, Grade 1, number of subjects: 4 n
  Stomatitis, Grade 2: (11) %
  Stomatitis, Grade 2, number of subjects: 2 n
  Vomiting, Grade 1: (11) %
  Vomiting, Grade 1, number of subjects: 2 n
[3]; all doses
  Decreased appetite, All Grades: (14) %
  Decreased appetite, All Grades, number of subjects: 7 n
  Diarrhea, All Grades: (40) %
  Diarrhea, All Grades, number of subjects: 20 n
  Dose discontinuations: (4) %
  Dose discontinuations, number: 2 n
  Dose reductions: (16) %
  Dose reductions, number: 8 n
  Nausea, All Grades: (16) %
  Nausea, All Grades, number of subjects: 8 n
  Paronychia, All Grades: (28) %
  Paronychia, All Grades, number of subjects: 14 n
  Pruritis, All Grades: (22) %
  Pruritis, All Grades, number of subjects: 11 n
  Rash, All Grades: (54) %
  Rash, All Grades, number of subjects: 27 n
  Stomatitis, All Grades: (30) %
  Stomatitis, All Grades, number of subjects: 15 n
  Vomiting, All Grades: (14) %
  Vomiting, All Grades, number of subjects: 7 n
[3]; each dose level
  Treatment-related adverse events (TRAEs), grade: Grade 1 and 2 treatment-related adverse events (TRAEs) at each dose level
[3]; ≥75 mg TDD (n = 9)
  Diarrhea, Grade 1: 22%
  Diarrhea, Grade 1, number of subjects: 2 n
  Diarrhea, Grade 2: 22%
  Diarrhea, Grade 2, number of subjects: 2 n
  Diarrhea, Grade 3: 11%
  Diarrhea, Grade 3, number of subjects: 1 n
  Dose reductions: 33%
  Dose reductions, number: 3 n
  Nausea, Grade 1: 11%
  Nausea, Grade 1, number of subjects: 1 n
  Nausea, Grade 2: 11%
  Nausea, Grade 2, number of subjects: 1 n
  Nausea, Grade 3: 11%
  Nausea, Grade 3, number of subjects: 1 n
  Paronychia, Grade 1: 22%
  Paronychia, Grade 1, number of subjects: 2 n
  Paronychia, Grade 2: 11%
  Paronychia, Grade 2, number of subjects: 1 n
  Pruritis, Grade 1: 11%
  Pruritis, Grade 1, number of subjects: 1 n
  Pruritis, Grade 2: 11%
  Pruritis, Grade 2, number of subjects: 1 n
  Rash, Grade 1: 44%
  Rash, Grade 1, number of subjects: 4 n
  Rash, Grade 2: 11%
  Rash, Grade 2, number of subjects: 1 n
  Stomatitis, Grade 1: 22%
  Stomatitis, Grade 1, number of subjects: 2 n
  Stomatitis, Grade 2: 22%
  Stomatitis, Grade 2, number of subjects: 2 n
  Vomiting, Grade 1: 11%
  Vomiting, Grade 1, number of subjects: 1 n
  Vomiting, Grade 2: 11%
  Vomiting, Grade 2, number of subjects: 1 n
  Vomiting, Grade 3: 11%
  Vomiting, Grade 3, number of subjects: 1 n
